Results: patent publication US20240254118A1, “PRMT5 INHIBITORS AND USES THEREOF” (Gilead Sciences, Inc., priority 2022, published 2024)

Legend:
[1] = tested on: SDMA signal (PRMT5 inhibition) in HCT116 MTAP-deleted cells; assay: Symmetric di-methyl arginine image-based high content screen assay (SDMA assay), HCT116 MTAP-deleted; format: cell-based; conditions: SDMA assay; for EC50: Homo sapiens, HCT-116, 72 h, 3 days of treatment, cell line not given, taken as HCT116 MTAP-deleted, read-out: EC50 (SDMA assay)
Procedure, shortened: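 HCT116 MTAP-deleted cells treated with compound until Day 3, then formalin-fixed, permeabilized and immunostained for SDMA, with DAPI nuclear counterstain. Imaged by high-content microscopy; SDMA read-out is mean Alexa 488 intensity per DAPI-defined cell, reflecting PRMT5 inhibition.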

[2] = tested on: HCT116 MTAP-deleted cells; assay: Cell viability assay (CellTiter-Glo, 7 days), HCT116 MTAP-deleted; conditions: Homo sapiens, HCT-116, 168 h
[3] = taken as HCT116 WT versus MTAP-deleted

SMILES | EC50 [1] [nM] | EC50 selectivity (SDMA assay) [1, 3] | CC50 [2] [nM] | EC50 selectivity (SDMA assay) ([1]; taken as HCT116 WT vs MTAP-deleted)
Cn1c(CN(C(=O)c2ccc3nc(N)c4ccccc4c3c2)N2CCCC2=O)nc2ccccc21 [Example 79, 6-Amino-N-[(1-methylbenzimidazol-2-yl)methyl]-N-(2-oxopyrrolidin-1-yl) phenanthridine-2-carboxamide] | 1 to 5 | 406 | 100 to 1000 | –
CN(C(=O)C1CC1)N(Cc1cccc2c1OC(F)(F)O2)C(=O)c1cc2c(cc1F)nc(N)c1cnn(C)c12 [Example 303, 4-amino-N′-(cyclopropanecarbonyl)-N-((2,2-difluorobenzo[d][1,3]dioxol-4-yl)methyl)-7-fluoro-N′,1-dimethyl-1H-pyrazolo[4,3-c]quinoline-8-carbohydrazide] | < 1 | 58 | < 100 | –
CC(=O)N(C)N(Cc1ccc(-c2cnc(C(F)(F)F)cc2C)cc1F)C(=O)c1ccc2nc(N)c3cnn(C)c3c2c1 [Example 220, N′-acetyl-4-amino-N-(2-fluoro-4-(4-methyl-6-(trifluoromethyl)pyridin-3-yl)benzyl)-N′,1-dimethyl-1H-pyrazolo[4,3-c]quinoline-8-carbohydrazide] | 1 to 5 | 15 | < 100 | –
CN(C(=O)C1(F)CC1)N(Cc1ccc(C(F)(F)F)nn1)C(=O)c1ccc2nc(N)c3cnn(C)c3c2c1 [Example 193, 4-amino-N′-(1-fluorocyclopropanecarbonyl)-N′,1-dimethyl-N-[[6-(trifluoromethyl)pyridazin-3-yl]methyl]pyrazolo[4,3-c]quinoline-8-carbohydrazide] | < 1 | 202 | < 100 | –
CN(C(=O)C1CC1)N(Cc1ccc(-c2cnsc2)cc1F)C(=O)c1ccc2nc(N)c3cnn(C)c3c2c1 [Example 240, 4-amino-N′-(cyclopropanecarbonyl)-N-(2-fluoro-4-(isothiazol-4-yl)benzyl)-N′,1-dimethyl-1H-pyrazolo[4,3-c]quinoline-8-carbohydrazide] | < 1 | 95 | < 100 | –
CN(CC1CC1)N(Cc1ccc(C(F)(F)F)cn1)C(=O)c1ccc2nc(N)c3cnn(C)c3c2c1 [Example 173, 4-amino-N′-(cyclopropylmethyl)-N′,1-dimethyl-N-[[5-(trifluoromethyl)-2-pyridyl]methyl]pyrazolo[4,3-c]quinoline-8-carbohydrazide] | < 1 | 117 | < 100 | –
CC(=O)N(C)N(Cc1ccc(C(F)(F)F)cn1)C(=O)c1ccc2nc(N)c3cnn(C)c3c2c1 [Example 33, N′-acetyl-4-amino-N′, 1-dimethyl-N-[[5-(trifluoromethyl)-2-pyridyl]methyl]pyrazolo[4,3-c]quinoline-8-carbohydrazide] | < 1 | 73 | < 100 | –
CC(=O)N(C)N(Cc1ccccc1Cl)C(=O)c1ccc2nc(N)c3cnn(C)c3c2c1 [Example 183, N′-acetyl-4-amino-N-(2-chlorobenzyl)-N′,1-dimethyl-1H-pyrazolo[4,3-c]quinoline-8-carbohydrazide] | 1 to 5 | 300 | < 100 | –
CC(=O)N(C)N(Cc1ccc(OC(F)F)cc1Cl)C(=O)c1ccc2nc(N)c3cnn(C)c3c2c1 [Example 447, N′-acetyl-4-amino-N-(2-chloro-4-(difluoromethoxy)benzyl)-N′,1-dimethyl-1H-pyrazolo[4,3-c]quinoline-8-carbohydrazide] | < 1 | – | < 100 | 49
CCOC(=O)NN(Cc1ccc(C(F)(F)F)cn1)C(=O)c1cc2c(cc1F)nc(N)c1cnn(C)c12 [Example 46, ethyl N-[(4-amino-7-fluoro-1-methyl-pyrazolo[4,3-c]quinoline-8-carbonyl)-[[5-(trifluoromethyl)-2-pyridyl]methyl]amino]carbamate] | < 1 | 6 | < 100 | –
CC(=O)N(CC(F)(F)F)N(Cc1ccc(C(F)(F)F)cn1)C(=O)c1ccc2nc(N)c3cnn(C)c3c2c1 [Example 116, N′-acetyl-4-amino-1-methyl-N′-(2,2,2-trifluoroethyl)-N-[[5-(trifluoromethyl)-2-pyridyl]methyl]pyrazolo[4,3-c]quinoline-8-carbohydrazide] | 1 to 5 | 189 | 100 to 1000 | –
CN(C(=O)C(C)(C)F)N(Cc1ccc(C(F)(F)F)cn1)C(=O)c1ccc2nc(N)c3cnn(C)c3c2c1 [Example 121, 4-amino-N′-(2-fluoro-2-methylpropanoyl)-N′,1-dimethyl-N-((5-(trifluoromethyl)pyridin-2-yl)methyl)-1H-pyrazolo[4,3-c]quinoline-8-carbohydrazide] | < 1 | 106 | < 100 | –
CC(=O)N(CC1CC1)N(Cc1ccc(C(F)(F)F)cn1)C(=O)c1ccc2nc(N)c3cnn(C)c3c2c1 [Example 341, N′-acetyl-4-amino-N′-(cyclopropylmethyl)-1-methyl-N-((5-(trifluoromethyl)pyridin-2-yl)methyl)-1H-pyrazolo[4,3-c]quinoline-8-carbohydrazide] | 1 to 5 | 188 | < 100 | –
CN(C(=O)C12CC(C1)C2)N(Cc1ccc(Cl)cn1)C(=O)c1ccc2nc(N)c3cnn(C)c3c2c1 [Example 140, 4-amino-N′-(bicyclo[1.1.1]pentane-1-carbonyl)-N-((5-chloropyridin-2-yl)methyl)-N′,1-dimethyl-1H-pyrazolo[4,3-c]quinoline-8-carbohydrazide] | < 1 | 456 | < 100 | –
[2H]C([2H])([2H])N(C(=O)C1CC1)N(Cc1ccc(C(F)(F)F)cn1)C(=O)c1ccc2nc(N)c3cnn(C([2H])([2H])[2H])c3c2c1 [Example 326, 4-amino-N′-(cyclopropanecarbonyl)-N′,1-bis(methyl-d3)-N-((5-(trifluoromethyl)pyridin-2-yl)methyl)-1H-pyrazolo[4,3-c]quinoline-8-carbohydrazide] | < 1 | 114 | < 100 | –
Cn1ncc2c(N)nc3ccc(C(=O)N(Cc4ccccc4F)N4CCCC4=O)cc3c21 [Example 56, 4-amino-N-(2-fluorobenzyl)-1-methyl-N-(2-oxopyrrolidin-1-yl)-1H-pyrazolo[4,3-c]quinoline-8-carboxamide] | < 1 | 195 | < 100 | –
CN(C(=O)c1cocn1)N(Cc1ccc(C(F)(F)F)cc1)C(=O)c1ccc2nc(N)c3cnn(C)c3c2c1 [Example 218, N′-(4-amino-1-methyl-1H-pyrazolo[4,3-c]quinoline-8-carbonyl)-N-methyl-N′-(4-(trifluoromethyl)benzyl)oxazole-4-carbohydrazide] | < 1 | 6 | < 100 | –
CN(C(=O)N1CC2CC1C2)N(Cc1ccc(C(F)(F)F)cn1)C(=O)c1ccc2nc(N)c3cnn(C)c3c2c1 [Example 128, 4-amino-N′-(2-azabicyclo[2.1.1]hexane-2-carbonyl)-N′,1-dimethyl-N-((5-(trifluoromethyl)pyridin-2-yl)methyl)-1H-pyrazolo[4,3-c]quinoline-8-carbohydrazide] | < 1 | 131 | < 100 | –
CC(=O)N1CC(C(=O)N(C)N(Cc2ccc(C(F)(F)F)cn2)C(=O)c2ccc3nc(N)c4cnn(C)c4c3c2)C1 [Example 103, N′-(1-acetylazetidine-3-carbonyl)-4-amino-N′,1-dimethyl-N-[[5-(trifluoromethyl)-2-pyridyl]methyl]pyrazolo[4,3-c]quinoline-8-carbohydrazide] | > 5 | <500 | > 1000 | –
Cn1ncc2c(N)nc3ccc(C(=O)N(Cc4ccc(C(F)(F)F)cn4)N4CCc5ccccc5C4=O)cc3c21 [Example 36, 4-amino-1-methyl-N-(1-oxo-3,4-dihydroisoquinolin-2-yl)-N-[[5-(trifluoromethyl)-2-pyridyl]methyl]pyrazolo[4,3-c]quinoline-8-carboxamide] | < 1 | 30 | < 100 | –
COCCN(C)N(Cc1ccc(C(F)(F)F)cn1)C(=O)c1ccc2nc(N)c3cnn(C)c3c2c1 [Example 179, 4-amino-N′-(2-methoxyethyl)-N′,1-dimethyl-N-((5-(trifluoromethyl)pyridin-2-yl)methyl)-1H-pyrazolo[4,3-c]quinoline-8-carbohydrazide] | < 1 | 318 | < 100 | –
CC(=O)N(c1ccccn1)N(Cc1ccc(C(F)(F)F)cn1)C(=O)c1ccc2nc(N)c3cnn(C)c3c2c1 [Example 147, N′-acetyl-4-amino-1-methyl-N′-(2-pyridyl)-N-[[5-(trifluoromethyl)-2-pyridyl]methyl]pyrazolo[4,3-c]quinoline-8-carbohydrazide] | < 1 | 16 | < 100 | –
CN(C(=O)C1CC1)N(Cc1ccc(-c2cnn(C(F)(F)F)c2)cc1F)C(=O)c1ccc2nc(N)c3cnn(C)c3c2c1 [Example 230, 4-amino-N′-(cyclopropanecarbonyl)-N-(2-fluoro-4-(1-(trifluoromethyl)-1H-pyrazol-4-yl)benzyl)-N′,1-dimethyl-1H-pyrazolo[4,3-c]quinoline-8-carbohydrazide] | < 1 | 228 | < 100 | –
